Data as given in PMC11674187, “Inhibitory Effects of Cenobamate on Multiple Human Cardiac Ion Channels and Possible Arrhythmogenic Consequences” (Biomolecules, 2024).
Several values for one entry are separate records, joined by “and”; a condition that tells them apart may be missing. Identical values can stand only once. Like-named read-outs stand apart in the source and are kept apart here.

Columns and labels:
Ncyte® vCardiomyocytes = assay: Amphotericin-perforated whole-cell recordings on hiPSC-CM (current clamp and voltage clamp); assay type: cell-based, human; conditions: cenobamate 200 µM
Experimental: Experiments were performed on HEK293T cell lines with persistent/inducible expression of different human cardiac ion channel isoforms: hNav1.5 and hKv7.1 + minK (Anaxon AG, Bern, Switzerland), hCav1.2 (α1c + β2 + α2δ1) (B’SYS GmbH, Witterswil, Switzerland), and hKv11.1 (hERG) (Cytocentrics Bioscience GmbH, Rostock, Germany). The cell lines were grown in standard conditions (37 °C, 5% CO2, 90% humidity) in DMEM:F12 medium (D8900, Sigma-Aldrich, Burlington, MA, USA) buffered with 15 mM HEPES, containing 3.15 g/L D-glucose and 0.055 g/L sodium pyruvate, supplemented with 1.2 g/L sodium bicarbonate, 10% fetal bovine serum (F2442, Sigma-Aldrich, Burlington, MA, USA), 2 mM L-glutamine (G7513, Sigma-Aldrich, Burlington, MA, USA), 1% penicillin–streptomycin (P4333, Sigma-Aldrich, Burlington, MA, USA), and with specific antibiotics for selection of transfected cells or induction of gene expression according to manufacturers’ instructions. The medium was changed every 2–3 days and the cells were passed weekly upon detachment with trypsin–EDTA solution. All cell culture media and solutions were sterile filtered with 0.22 μm polyvinylidene fluoride filters. Ncyte® vCardiomyocytes (Ncardia, Leiden, The Netherlands) were cultured in 24-well plates precoated with bovine fibronectin, following manufacturer’s instructions. For the experiments, cardiomyocytes were detached as described previously and plated on ϕ 10 mm glass coverslips, like the other cell lines.
Experiments on Ncyte® vCardiomyocytes were performed via an amphotericin-perforated whole-cell approach, filling the pipettes with solution containing amphotericin B 300 µg/mL except for a small region near the tip that contained amphotericin-free solution. The voltage-clamp and current-clamp protocols were similar to those used in our previous studies; the following protocols were recorded in sequence before and at 3 min after application of cenobamate in the bath to a final concentration of 200 µM: • - Nav standard protocol: holding −90 mV, depolarizing step at −10 mV lasting 40 ms; • - Cav-Nav separation protocol: holding −80 mV, first step at −20 mV 200 ms, intermediate step at −40 mV 100 ms, second step at −50 mV to +50 mV 200 ms, in 10 mV increments in consecutive sweeps; • - hERG standard protocol: holding −70 mV, a brief preliminary step at −50 mV 100 ms, first step at +40 mV 2000 ms, second step at −120 mV/−50 mV 2000 ms (in consecutive sweeps); • - A double voltage ramp protocol: holding −80 mV, first ramp from −120 mV to +80 mV in 2000 ms, second ramp from +80 mV back to −120 mV in 2000 ms, sweeps repeated at 10 s intervals; • - A current-clamp protocol with external pacing: 3 current stimuli of 2 nA amplitude, duration 0.5 ms (up to 2.5 ms in some experiments) applied at 3 s intervals, first stimulus at 500 ms after start of recording; in cells with spontaneous pace-making, this phenomenon was suppressed by applying a steady hyperpolarizing current of −10 pA or −20 pA. […]

[1] = system: voltage-gated sodium channels in rat hippocampal CA3 neurons; conditions: cited from earlier work; for IC50: newborn rat CA3 hippocampal neurons, ref [22]
[2] = rabbit; ref [5] p.10; cited from earlier work

Compound: NC(=O)O[C@@H](Cn1ncnn1)c1ccccc1Cl [cenobamate]
- %ICaL peak change, mean (Table S8) (Ncyte® vCardiomyocytes; hiPSC-CM): 35.16%
- %INa peak change, mean (Table S8) (Ncyte® vCardiomyocytes; hiPSC-CM): 27.43%
- %If change, mean (Table S8) (Ncyte® vCardiomyocytes; hiPSC-CM): 19.89%
- APD90 ceno, mean (Table S8) (Ncyte® vCardiomyocytes; initial mean 1212.99 ms): 619.83 ms
- average APD90 shortening (%APD90 change) (Ncyte® vCardiomyocytes; mean (SD), n = 5): 28.55% and 28.6 ± 13.5%
- change in half-inactivation potential ([1]; 100 µM cenobamate, ref [22] Nakamura et al., 2019): −6 mV
- IC50 ([1]; read-out: IC50 on late (persistent) INa): 53.1 µM
- IC50 ([1]; read-out: estimated IC50 on peak (transient) Na+ current): > 500 µM
- Kd ([1]; ref [22] Nakamura et al., 2019, read-out: KR (affinity for resting (closed) conformation)): 798 µM
- protein binding [2]: 35.4%
